Assays:
[1] = test system: PIKFYVE TDP-43 yeast strain; test: Propidium iodide viability assay in PIKFYVE TDP-43 yeast strain; assay type: cell-based
From the text: Generation of TDP-43 yeast model expressing human PIKfyve. Human PIKFYVE (“entry clone”) was cloned into pAG416GPDccdB (“destination vector”) according to standard Gateway cloning protocols (Invitrogen, Life Technologies). The resulting pAG416GPD-PIKFYVE plasmids were amplified in E. coli and plasmid identity confirmed by restriction digest and Sanger sequencing. Lithium acetate/polyethylene glycol-based transformation was used to introduce the above PIKFYVE plasmid into a BY4741 yeast strain auxotrophic for the ura3 gene and deleted for two transcription factors that regulate the xenobiotic efflux pumps, a major efflux pump, and FAB1, the yeast ortholog of PIKFYVE (MATa, snq2::KILeu2; pdr3::Klura3;pdr1::NATMX; fab1::G418^R, his3;leu2;ura3;met15;LYS2+) (FIG. 2).
Transformed yeast were plated on solid agar plates with complete synthetic media lacking uracil (CSM-ura) and containing 2% glucose. Individual colonies harboring the control or PIKFYVE TDP-43 plasmids were recovered. A plasmid containing wild-type TDP-43 under the transcriptional control of the GAL1 promoter and containing the hygromycin-resistance gene as a selectable marker was transformed into the fab1::G418^R pAG416GPD-PIKFYVE yeast strain (FIG. 1). Transformed yeast were plated on CSM-ura containing 2% glucose and […] after overnight recovery in media lacking antibiotic. Multiple independent isolates were further evaluated for cytotoxicity and TDP-43 expression levels.
Viability Assay. A control yeast strain with the wild-type yeast FAB1 gene and TDP-43 (“FAB1 TDP-43”, carries empty pAG416 plasmid), and the “PIKFYVE TDP-43” yeast strain, were assessed for toxicity using a propidium iodide viability assay. Both yeast strains were transferred from solid CSM-ura/2% glucose agar plates into 3 mL of liquid CSM-ura/2% glucose media for 6-8 hours at 30° C. with aeration. Yeast cultures were then diluted to an optical density at 600 nm wavelength (OD600) of 0.005 in 3 mL of CSM-ura/2% raffinose and grown overnight at 30° C. with aeration to an OD600 of 0.3-0.8. Log-phase overnight cultures were diluted to OD600 of 0.005 in CSM-ura containing either 2% raffinose or galactose and 150 μL dispensed into each well of a flat bottom 96-well plates. Compounds formulated in 100% dimethyl sulfoxide (DMSO) were serially diluted in DMSO and 1.5 μL diluted compound transferred to the 96-well plates using a multichannel pipet. Wells containing DMSO alone were also evaluated as controls for compound effects. Tested concentrations ranged from 15 μM to 0.11 μM. Cultures were immediately mixed to ensure compound distribution and covered plates incubated at 30° C. for 24 hours in a stationary, humified incubator.
Upon the completion of incubation, cultures were assayed for viability using propidium iodide (PI) to stain for dead/dying cells. A working solution of PI was made where, for each plate, 1 μL of 10 mM PI was added to 10 mL of CSM-ura (raffinose or galactose). The final PI solution (50 μL/well) was dispensed into each well of a new round bottom 96-well plate. The overnight 96-well assay plate was then mixed with a multichannel pipet and 50 μL transferred to the PI-containing plate. This plate was then incubated for 30 minutes at 30° C. in the dark. A benchtop flow cytometer (Miltenyi MACSquant) was then used to assess red fluorescence (B2 channel), forward scatter, and side scatter (with following settings: gentle mix, high flow rate, fast measurement, 10,000 events). Intensity histograms were then gated for “PI-positive” or “PI-negative” using the raffinose and galactose cultures treated with DMSO as controls. The DMSO controls for raffinose or galactose-containing cultures were used to determine the window of increased cell death and this difference set to 100. All compounds were similarly gated and then compared to this maximal window to establish the percent reduction in PI-positive cells.

FAB1 TDP-43 yeast strain = test: Propidium iodide viability assay in FAB1 TDP-43 control yeast strain; assay type: cell-based; settings: across a range of compound concentrations (FIG. 5, 0.23 μM shown)
Experimental: Generation of TDP-43 yeast model expressing human PIKfyve. Human PIKFYVE (“entry clone”) was cloned into pAG416GPDccdB (“destination vector”) according to standard Gateway cloning protocols (Invitrogen, Life Technologies). The resulting pAG416GPD-PIKFYVE plasmids were amplified in E. coli and plasmid identity confirmed by restriction digest and Sanger sequencing. […]
Transformed yeast were plated on solid agar plates with complete synthetic media lacking uracil (CSM-ura) and containing 2% glucose. […] Multiple independent isolates were further evaluated for cytotoxicity and TDP-43 expression levels.
Viability Assay. A control yeast strain with the wild-type yeast FAB1 gene and TDP-43 (“FAB1 TDP-43”, carries empty pAG416 plasmid), and the “PIKFYVE TDP-43” yeast strain, were assessed for toxicity using a propidium iodide viability assay. […] Wells containing DMSO alone were also evaluated as controls for compound effects. […]
Upon the completion of incubation, cultures were assayed for viability using propidium iodide (PI) to stain for dead/dying cells. […] A benchtop flow cytometer (Miltenyi MACSquant) was then used to assess red fluorescence (B2 channel), forward scatter, and side scatter (with following settings: gentle mix, high flow rate, fast measurement, 10,000 events). […]

For `Cc1cccc(/C=N/Nc2cc(N3CCOCC3)n3nc(-c4ccncc4)cc3n2)c1` [APY0201, reference compound], the “propidium iodide-positive dead cells in PIKFYVE TDP-43 model” value ([1]; 0.23 μM (FIG. 6)) was “reduced the population of propidium iodide-positive dead cells”, the “concentrations that afforded increased viability” value ([1]; PIKFYVE TDP-43 model) was 0.5 mM to less than 100 nM and the “viable cells in FAB1 TDP-43” value (FAB1 TDP-43 yeast strain) was “no increase in viable cells”.
